In US9945845B2, “Methods of screening using amphibians” (priority 2009, dated 2018):
Entries after “also recorded” stand apart in the source; their conditions may differ. Structures can show the parent of a compound that is named as a salt. Where two headings read alike, the source gives them in different places.

Legend:
[1] = system: blood vessel development and/or lymphangiogenesis in Xenopus embryos; assay type: in vivo, Xenopus laevis; details: for lymph vessel development phenotype (vegfr3 expression, in words): 20 μM from stage 31, fixed at stage 42; for ALH phenotype: anterior lymph heart; for ALS phenotype: anterior lymph sac; for PLV phenotype: posterior lymph vessels
Method in brief: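 Albino Xenopus embryos treated at 20 μM final (from 10-mM DMSO stocks) in screening medium, 7 per well, from stage 31 (37 hpf) to stage 35/36 (50 hpf) or 42 (80 hpf). Fixed in 4% paraformaldehyde and scored by whole-mount in situ hybridization: vasculogenesis and intersomitic vein angiogenesis at stage 35/36, lymph vessel development at stage 42.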

Xenopus embryos = details: for edema or other phenotype in compound-treated Xenopus embryos/tadpoles (in words) / Lethality (NF) / Onset (NF): 1% DMSO; for Lethality: — = no stage of lethality given; for Type of edema Ventral: ‡ = edemas also detected in the gut; for Onset (NF): onset of edema
Method in brief: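 Stage 31 (37 hpf) Xenopus embryos, five per well, exposed to 20 µM compound in 1% DMSO at 23 °C for 4 days. Edema, lethality and other external phenotypes were scored daily by two investigators at stages 39, 41, 45 and 47.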

LEC [2] = test: cells; assay type: cell-based, human; details: for activity at 1 µM: Homo sapiens
Method in brief: (§1)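 HUVEC and LEC in EBM with 20% FBS, hydrocortisone and dibutyryl-cAMP, up to eleven passages, treated overnight at 37 °C with compound at 1 μM in 0.1% DMSO, then fixed in 4% paraformaldehyde. Read-out: total tube length (μm) per area over three hotspot images per well, triplicate wells.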

HUVEC [3] = test: HUVEC tube formation assay; assay type: cell-based, human; details: Homo sapiens, HUVEC
Method in brief: as §1

HUVEC [4] = test: HUVEC cell proliferation assay; assay type: cell-based, human; details: for activity at 10 µM: Homo sapiens, HUVEC, 48 h
Method: (§2) Human umbilical vein endothelial cells (HUVEC) were purchased from PromoCell. […] HUVEC and LEC were cultured in endothelial basal medium EBM (Cambrex) supplemented with 20% fetal bovine serum (Invitrogen), antibiotic-antimycotics (100 U/ml penicillin, 100 μg/ml streptomycin, 250 ng/ml amphotericin; Invitrogen). 2 mM L-glutamine (Invitrogen), 10 μg/ml hydrocortisone (Fluka) and 25 μg/ml N^6,2′-O-dibutyryladenosine 3′,5′-cyclic monophosphate sodium salt (Fluka) for up to eleven passages.
(§3) The intensity of fluorescence, which is proportional to the number of viable cells, was measured using a microplate reader (SpectraMax Gemini EM; Molecular Devices). The chemical treatments were performed in five replicates.
(§4) The cell proliferation assays were performed by treating the endothelial cell cultures with compounds at a screening dose of 10 μM in 0.1% DMSO for 48 hours (FIG. 6a; Table 10).

LEC [5] = test: LEC cell proliferation assay; assay type: cell-based, human; details: for activity at 10 µM: Homo sapiens, 48 h
Method: as §2, §3, §4

[6] = system: transgenic zebrafish expressing a fluorescent vascular reporter gene; details: highly hydrophilic compounds; Tran et al., 2007; cited from earlier work
[7] = 20 μM from stage 31, fixed at stage 35/36
[8] = intersomitic vessels, Xenopus embryos
[9] = posterior cardinal vein, Xenopus embryos
[10] = vitelline vein network, Xenopus embryos
[11] = compounds causing lethality, 20 μM, treatment from stage 31, Nieuwkoop & Faber stage
[12] = 1 μM in 0.1% DMSO, overnight, read-out: LEC tube formation
[13] = 1 μM in 0.1% DMSO, read-out: LEC tube formation (tube length)
[14] = 1 μM in 0.1% DMSO, overnight, read-out: HUVEC tube formation
[15] = 1 μM in 0.1% DMSO, read-out: HUVEC tube formation (tube length)
[16] = 10 μM in 0.1% DMSO, 48 hours, read-out: HUVEC proliferation
[17] = 10 μM in 0.1% DMSO, 48 hours, read-out: LEC proliferation
[18] = compounds causing edema, 20 μM, treatment from stage 31, scored to stage 47
[19] = 20 μM, treatment from stage 31, Nieuwkoop & Faber stage

Structure (SMILES) | ISV phenotype [1, 8] | PCV phenotype [1, 9] | VVN phenotype [1, 10] | activity at 1 µM (LEC [2]; [12]) [%] | activity at 1 µM (LEC [2]; [13]) [%] | activity at 1 µM (HUVEC [3]; [14]) [%] | activity at 1 µM (HUVEC [3]; [15]) [%] | activity at 10 µM (HUVEC [4]; [16]) [%] | activity at 10 µM (LEC [5]; [17]) [%] | Lethality (NF) (Xenopus embryos; [18]) | Type of edema Pericordial (Xenopus embryos; embryonic stage) | Lethality (Xenopus embryos; embryonic stage) | Onset (NF) (Xenopus embryos; [19]) | other results
CC(C)c1ccc2c(c1)c(SC(C)(C)C)c(CC(C)(C)C(=O)[O-])n2Cc1ccc(Cl)cc1.[Na+] [MK-886, 3[3-tert-Butylthio-1-(4-chlorobenzyl)-5-isopropyl-1H-indol-2-yl]-2,2-dimethylpropionic acid, sodium salt] | normal | normal | hypoplastic | 50 to 85 | 50 to 85 | 50 to 85 | 50 to 85 | 115 to 150 | 85 to 115 |  |  |  |  | blood vessel development phenotype (apj expression, in words) [1, 7]: hypoplasia of the VVN; Phenotype class in vivo ([1]; Xenopus embryos, 20 μM, vascular phenotype): VVN hypoplasia; edema or other phenotype in compound-treated Xenopus embryos/tadpoles (in words) (Xenopus embryos; 20 μM, treatment from stage 31): causing lethality; Lethality (NF) (Xenopus embryos; [11]): 39 NF
COC(=O)C1=C(C)NC(C)=C(C(=O)OCCN(C)Cc2ccccc2)C1c1cccc([N+](=O)[O-])c1 (centres unmarked) [Nicardipine hydrochloride] |  |  |  | 85 to 115 | 85 to 115 | 85 to 115 | 85 to 115 | 85 to 115 | 85 to 115 | 45 NF | 41/42 | 45 embryonic stages according to Nieuwkoop and Faber (NF) | 41/42 | lymph vessel development phenotype (vegfr3 expression, in words) ([1]; hydrochloride): inhibiting preferentially lymphatic vascular development; also recorded: discontinuatous, dysplastic lymphatic vessels; Blood vessel phenotype ([1]; Xenopus embryos): normal; ALH phenotype ([1]; Xenopus embryos): dysplastic; ALS phenotype ([1]; Xenopus embryos): dysplastic; PLV phenotype ([1]; Xenopus embryos): hypoplastic; Type of edema Ventral (Xenopus embryos; embryonic stage): 41/42
COC(=O)Nc1nc2ccc(C(=O)c3cccs3)cc2[nH]1 [Nocodazole] | impaired | hypoplastic | hypoplastic | < 50 | < 35 | < 50 | < 35 | 65 to 82 | 65 to 82 | 33/34 | 33/34 | 33/34 | 33/34 | blood vessel development phenotype (apj expression, in words) [1, 7]: interfered with blood vessel vasculogenesis and PCV assembly
COc1cc([C@@H]2c3cc4c(cc3[C@H](O)[C@H]3COC(=O)[C@H]23)OCO4)cc(OC)c1OC [Podophyllotoxin] | impaired | hypoplastic | hypoplastic |  |  |  |  |  |  | 41/42 | 39/40 | 41/42 | 39/40 | activity at 1 µM (LEC [2]; read-out: LEC tube formation): < 50%; activity at 1 µM (LEC [2]; read-out: LEC tube formation (tube length)): < 35%; activity at 1 µM (HUVEC [3]; read-out: HUVEC tube formation): < 50%; activity at 1 µM (HUVEC [3]; read-out: HUVEC tube formation (tube length)): < 35%; activity at 10 µM (HUVEC [4]; read-out: HUVEC proliferation, 10 μM in 0.1% DMSO, 48 hours): 65 to 82%; activity at 10 µM (LEC [5]; read-out: LEC proliferation, 10 μM in 0.1% DMSO, 48 hours): 65 to 82%
Cc1cc(C)c(C=C2C(=O)Nc3ccccc32)[nH]1 [SU 5416, 1,3-Dihydro-3-[(3,5-dimethyl-1H-pyrrol-2-yl)methylene]-2H-indol-2-one] |  |  |  | 50 to 85 |  | 85 to 115 |  | 85 to 115 | 85 to 115 |  |  |  |  | ISV phenotype ([1]; in vivo): impaired; PCV phenotype ([1]; in vivo): normal; VVN phenotype ([1]; in vivo): hypoplastic; blood vessel development phenotype (apj expression, in words) ([1]; in vivo): block ISV outgrowth; edema or other phenotype in compound-treated Xenopus embryos/tadpoles (in words) (Xenopus embryos; 20 μM, treatment from stage 31): causing lethality; scored in the phenotypic Xenopus screens (Xenopus embryos; 20 μM, known antiangiogenic compounds): active; Lethality (NF) (Xenopus embryos; [11]): 37/38; effect on LEC tube formation (in words) (LEC [2]; 1 μM in 0.1% DMSO): preferentially blocked tube formation in LEC rather than HUVEC cultures
CC(C)COC(=O)OCN1C(=O)CN(CCN2CC(=O)N(COC(=O)OCC(C)C)C(=O)C2)CC1=O [Sobuzoxane, 4,4′-(1,2-Ethanediyl)bis(1-isobutoxycarbonyloxymethyl-2,6-piperazinedione)] |  |  |  | 85 to 115 | 85 to 115 | 85 to 115 | 85 to 115 | 115 to 150 | 115 to 150 | 47 NF |  | 47 embryonic stages according to Nieuwkoop and Faber (NF) | 41/42 | lymph vessel development phenotype (vegfr3 expression, in words) [1]: discontinuatous, dysplastic lymphatic vessels; Blood vessel phenotype ([1]; Xenopus embryos): normal; ALH phenotype ([1]; Xenopus embryos): dysplastic; ALS phenotype ([1]; Xenopus embryos): dysplastic; PLV phenotype ([1]; Xenopus embryos): hypoplastic; Type of edema Proctodeal (Xenopus embryos; embryonic stage): 45 embryonic stages according to Nieuwkoop and Faber (NF); Type of edema Pronephric (Xenopus embryos; embryonic stage): 41/42; Type of edema Periocular (Xenopus embryos; embryonic stage, * = causing bulging eyes, # = bilateral, causing narrow-set eyes): 45* embryonic stages according to Nieuwkoop and Faber (NF); Type of edema Ventral (Xenopus embryos; embryonic stage): 45 embryonic stages according to Nieuwkoop and Faber (NF); HUVEC proliferation (HUVEC [4]; 10 μM in 0.1% DMSO, 48 hours): + (+, moderate promotion (>115-150% of control).); LEC proliferation (LEC [5]; 10 μM in 0.1% DMSO, 48 hours): + (+, moderate promotion (>115-150% of control).)
N#CC(=Cc1ccc(O)c(O)c1)C(=O)Nc1ccccc1 [Tyrphostin AG 494, N-Phenyl-3,4-dihydroxybenzylidenecyanoacetamide] | impaired | hypoplastic | hypoplastic | 50 to 85 |  | 85 to 115 |  | 85 to 115 | 85 to 115 | 40 NF | 39 embryonic stages according to Nieuwkoop and Faber (NF) | 40 embryonic stages according to Nieuwkoop and Faber (NF) |  | effect on LEC tube formation (in words) (LEC [2]; 1 μM in 0.1% DMSO): preferentially blocked tube formation in LEC rather than HUVEC cultures
CN(C)c1ccc(O)c2c1C[C@H]1C[C@H]3[C@H](N(C)C)C(O)=C(C(N)=O)C(=O)[C@@]3(O)C(O)=C1C2=O [minocycline hydrochloride] |  |  |  |  |  |  |  |  |  |  |  |  |  | penetration of embryos [6]: poorly penetrate embryos
O=C1CCC(N2C(=O)c3ccccc3C2=O)C(=O)N1 (centres unmarked) [thalidomide] |  |  |  |  |  |  |  |  |  |  |  |  |  | penetration of embryos [6]: poorly penetrate embryos
